Experimental data: patent US10526332B2, “Imidazo-pyrimidone compounds, and preparation method and application thereof” (Nanjing Gator Meditech Company, Ltd., priority 2015, dated 2020)

Columns and labels:
HCT116 = experiment: MTS cell proliferation test, HCT116; conditions: Homo sapiens, HCT-116, 72 h, read-out: HCT116 IC50 (Mean ± SD);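 further: absorbance at 490 nm after MTS/PMS addition, survival relative to untreated cells (100%) after blank subtraction, IC50 from the concentration–survival curve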
Description: (§1) The disclosed compounds and their pharmaceutically accepted salts are assayed for their anti-cancer activities by the following method. • MTS Cell Proliferation Test 1. Materials 1.1. […] Cell Lines
(§2) Two cell lines were used, both HCT116 and MDA-MB-231 were purchased from USATCC.
(§3) MTS reagent powder was purchased from Promega. Cat #G1111; PMS from Sigma, Cat #P8625; cell culture medium RPMI-1640, Cat #10040562R; DMEM, Cat #0013CVR; 100× sodium pyruvate solution Cat #136007; 100× Penicillin Streptomycin Solution, Cat ⊇15140122; 100× Penicillin Streptomycin Solution, Cat #15140122; 0.25% Trypsin (Parenzyme), Cat #25200-072; and fetal bovine serum, Cat #16000-044 were all purchased from Life Technologies.
(§4) • Thermo incubator (Format 371); • Heat force Biosafety Cabinet (HF sage 1500); • BioTek Microplate Reader (Synergy 2). 2. […] 2.3 Procedure of MTS Methods:
(§5) Cells at logarithmic phase were harvested, then digested with 0.25% trypsin, and re-suspense in complete growth medium. 150 uL/well of HCT-116 and MDA-MB-231 were dispensed into 96 well culture plates with 2.5×10^3 cell/well. The plates were pre-incubated in a humidified CO2 incubator at 37° C., 5% CO2) for 24 hours. 50 uL of various concentration of test compounds and reference compound were added. A negative control (only cells and culture medium without compound) and blank control (only culture medium without cells) were set at the same time. The plates were incubated for 72 hr in the incubator. The MTS/PMS solution was prepared and added into 96 well plates according to the test instruction by Promega Corporation. The plates were incubated again for some time, then the absorbance at 490 nm were measured using Biotek Instruments, Inc microplate reader and the cell survival rates calculated. Cell Survival Rate(%)=(At−Ab)/(Ac−Ab)×100% where, • At=Absorbance value of test compound • Ab=Absorbance value of blank • Ac=Absorbance value of control 3. Results

MDA-MB-231 = experiment: MTS cell proliferation test, MDA-MB-231; conditions: Homo sapiens, MDA-MB-231, 72 h, read-out: MDA231 IC50 (Mean ± SD);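 further: cells settled 24 h before compound addition, MTS absorbance at 490 nm, survival as percent of untreated cells after blank subtraction, IC50 fitted from survival versus concentration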
Description: as §1, §2, §3, §4, §5

IC50 (HCT116) [µM]	IC50 (MDA-MB-231) [µM]	Structure (SMILES)
0.23 ± 0.004	0.24	Cc1cccc(CN2C(=O)C3=C(CCN(Cc4ccccc4)C3)N3CCN=C23)c1 [Compound I-2, 7-benzyl-4-(3-methylbenzyl)-1,2,6,7,8,9-hexahydroimidazo[1,2-a]pyrido[3,4-e]pyrimidin-5(4H)-one]
0.06 ± 0.006	0.07 ± 0.003	O=C1C2=C(CCN(Cc3ccccc3)C2)N2CCN=C2N1Cc1ccc(Cl)cc1 [Compound I-3, 7-benzyl-4-(4-chlorobenzyl)-1,2,6,7,8,9-hexahydroimidazo[1,2-a]pyrido[3,4-e]pyrimidin-5(4H)-one]
1.36 ± 0.023	1.17 ± 0.178	O=C1C2=C(CCN(Cc3ccccc3)C2)N2CCN=C2N1Cc1ccccc1C(F)(F)F [Compound I-4, 7-benzyl-4-(2-(trifluoromethyl)benzyl)-1,2,6,7,8,9-hexahydroimidazo[1,2-a]pyrido[3,4-e]pyrimidin-5(4H)-one]
5.96 ± 1.35	6.81 ± 0.057	O=C1C2=C(CCN(Cc3ccccc3)C2)N2CCN=C2N1Cc1ccccc1Br [Compound I-5, 7-benzyl-4-(2-bromobenzyl)-1,2,6,7,8,9-hexahydroimidazo[1,2-a]pyrido[3,4-e]pyrimidin-5(4H)-one]
4.16 ± 1.51	4.45 ± 0.356	Cc1ccccc1CN1C(=O)C2=C(CCN(Cc3ccc(C(F)(F)F)cc3)C2)N2CCN=C12 [Compound I-6, 4-(2-methylbenzyl)-7-(4-(trifluoromethyl)benzyl)-1,2,6,7,8,9-hexahydroimidazo[1,2-a]pyrido[3,4-e]pyrimidin-5(4H)-one]
2.09 ± 0.092	1.88 ± 0.078	COc1ccc(CN2CCC3=C(C2)C(=O)N(Cc2ccccc2C)C2=NCCN23)cc1 [Compound I-7, 7-(4-methoxybenzyl)-4-(2-methylbenzyl)-1,2,6,7,8,9-hexahydroimidazo[1,2-a]pyrido[3,4-e]pyrimidin-5(4H)-one]
1.77 ± 0.23	1.82 ± 0.241	Cc1ccccc1CN1C(=O)C2=C(CCN(Cc3ccc(N4CCOCC4)cc3)C2)N2CCN=C12 [Compound I-8, 4-(2-methylbenzyl)-7-(4-morpholinobenzyl)-1,2,6,7,8,9-hexahydroimidazo[1,2-a]pyrido[3,4-e]pyrimidin-5(4H)-one]
0.71 ± 0.001	0.74	Cc1ccccc1CN1C(=O)C2=C(CCN(Cc3cccc(C(F)(F)F)c3)C2)N2CCN=C12 [Compound I-9, 4-(2-methylbenzyl)-7-(3-(trifluoromethyl)benzyl)-1,2,6,7,8,9-hexahydroimidazo[1,2-a]pyrido[3,4-e]pyrimidin-5(4H)-one]
2.09 ± 0.016	2.19 ± 0.027	Cc1ccccc1CN1C(=O)C2=C(CCN(Cc3ccc(N4CCN(C)CC4)cc3)C2)N2CCN=C12 [Compound I-10, 4-(2-methylbenzyl)-7-(4-(4-methylpiperazin-1-yl)benzyl)-1,2,6,7,8,9-hexahydroimidazo[1,2-a]pyrido[3,4-e]pyrimidin-5(4H)-one]
1.99 ± 0.041	2.18 ± 0.02	O=C1C2=C(CCN(Cc3ccccc3F)C2)N2CCN=C2N1Cc1ccccc1F [Compound I-11, 4,7-bis(2-fluorobenzyl)-1,2,6,7,8,9-hexahydroimidazo[1,2-a]pyrido[3,4-e]pyrimidin-5(4H)-one]
2.04 ± 0.029	2.07 ± 0.001	O=C1C2=C(CCN(Cc3ccccc3F)C2)N2CCN=C2N1Cc1ccccc1C(F)(F)F [Compound I-12, 7-(2-fluorobenzyl)-4-(2-(trifluoromethyl)benzyl)-1,2,6,7,8,9-hexahydroimidazo[1,2-a]pyrido[3,4-e]pyrimidin-5(4H)-one]
1.77 ± 0.072	1.94 ± 0.277	O=C1C2=C(CCN(Cc3ccccc3F)C2)N2CCN=C2N1Cc1ccccc1Cl [Compound I-13, 4-(2-chlorobenzyl)-7-(2-fluorobenzyl)-1,2,6,7,8,9-hexahydroimidazo[1,2-a]pyrido[3,4-e]pyrimidin-5(4H)-one]
1.45 ± 0.155	2.08 ± 0.024	O=C1C2=C(CCN(Cc3ccccc3F)C2)N2CCN=C2N1Cc1ccccc1Br [Compound I-14, 4-(2-bromobenzyl)-7-(2-fluorobenzyl)-1,2,6,7,8,9-hexahydroimidazo[1,2-a]pyrido[3,4-e]pyrimidin-5(4H)-one]
0.68 ± 0.003	0.73 ± 0.004	Cc1ccccc1CN1C(=O)C2=C(CCN(Cc3ccccc3F)C2)N2CCN=C12 [Compound I-15, 7-(2-fluorobenzyl)-4-(2-methylbenzyl)-1,2,6,7,8,9-hexahydroimidazo[1,2-a]pyrido[3,4-e]pyrimidin-5(4H)-one]
2.16 ± 0.013	3.07 ± 0.752	O=C1C2=C(CCN(Cc3ccccc3Br)C2)N2CCN=C2N1Cc1ccccc1F [Compound I-16, 7-(2-bromobenzyl)-4-(2-fluorobenzyl)-1,2,6,7,8,9-hexahydroimidazo[1,2-a]pyrido[3,4-e]pyrimidin-5(4H)-one]
2.02 ± 0.022	2.14 ± 0.031	O=C1C2=C(CCN(Cc3ccccc3Br)C2)N2CCN=C2N1Cc1ccccc1C(F)(F)F [Compound I-17, 7-(2-bromobenzyl)-4-(2-(trifluoromethyl)benzyl)-1,2,6,7,8,9-hexahydroimidazo[1,2-a]pyrido[3,4-e]pyrimidin-5(4H)-one]

IC50 (HCT116) [µM]	IC50 (MDA-MB-231) [µM]	Structure (SMILES)
2.15 ± 0.022		O=C1C2=C(CCN(Cc3ccccc3Br)C2)N2CCN=C2N1Cc1ccccc1Cl [Compound I-18, 7-(2-bromobenzyl)-4-(2-chlorobenzyl)-1,2,6,7,8,9-hexahydroimidazo[1,2-a]pyrido[3,4-e]pyrimidin-5(4H)-one]
2.22 ± 0.007	3.67 ± 0.036	O=C1C2=C(CCN(Cc3ccccc3Br)C2)N2CCN=C2N1Cc1ccccc1Br [Compound I-19, 4,7-bis(2-bromobenzyl)-1,2,6,7,8,9-hexahydroimidazo[1,2-a]pyrido[3,4-e]pyrimidin-5(4H)-one]
27.5 ± 3.35	27.1 ± 3.24	Cc1ccccc1CN1C(=O)C2=C(CCN(Cc3ccccc3Br)C2)N2CCN=C12 [Compound I-20, 7-(2-bromobenzyl)-4-(2-methylbenzyl)-1,2,6,7,8,9-hexahydroimidazo[1,2-a]pyrido[3,4-e]pyrimidin-5(4H)-one]
2.12 ± 0.039	2.15 ± 0.034	Cc1ccccc1CN1CCC2=C(C1)C(=O)N(Cc1ccccc1F)C1=NCCN12 [Compound I-21, 4-(2-fluorobenzyl)-7-(2-methylbenzyl)-1,2,6,7,8,9-hexahydroimidazo[1,2-a]pyrido[3,4-e]pyrimidin-5(4H)-one]
2.03 ± 0.009	2.13 ± 0.008	Cc1ccccc1CN1CCC2=C(C1)C(=O)N(Cc1ccccc1C(F)(F)F)C1=NCCN12 [Compound I-22, 7-(2-methylbenzyl)-4-(2-(trifluoromethyl)benzyl)-1,2,6,7,8,9-hexahydroimidazo[1,2-a]pyrido[3,4-e]pyrimidin-5(4H)-one]
2 ± 0.026	2.14 ± 0.025	O=C1C2=C(CCN(Cc3ccccc3Cl)C2)N2CCN=C2N1Cc1ccccc1F [Compound I-23, 7-(2-chlorobenzyl)-4-(2-fluorobenzyl)-1,2,6,7,8,9-hexahydroimidazo[1,2-a]pyrido[3,4-e]pyrimidin-5(4H)-one]
2.09 ± 0.041	1.99 ± 0.039	O=C1C2=C(CCN(Cc3ccccc3Cl)C2)N2CCN=C2N1Cc1ccccc1C(F)(F)F [Compound I-24, 7-(2-chlorobenzyl)-4-(2-(trifluoromethyl)benzyl)-1,2,6,7,8,9-hexahydroimidazo[1,2-a]pyrido[3,4-e]pyrimidin-5(4H)-one]
1.95 ± 0.064	1.31 ± 0.154	O=C1C2=C(CCN(Cc3ccccc3Cl)C2)N2CCN=C2N1Cc1ccccc1Cl [Compound I-25, 4,7-bis(2-chlorobenzyl)-1,2,6,7,8,9-hexahydroimidazo[1,2-a]pyrido[3,4-e]pyrimidin-5(4H)-one]
1.5 ± 0.394	2.08 ± 0.067	O=C1C2=C(CCN(Cc3ccccc3Cl)C2)N2CCN=C2N1Cc1ccccc1Br [Compound I-26, 4-(2-bromobenzyl)-7-(2-chlorobenzyl)-1,2,6,7,8,9-hexahydroimidazo[1,2-a]pyrido[3,4-e]pyrimidin-5(4H)-one]
2.13 ± 0.045	2.26 ± 0.018	Cc1ccccc1CN1C(=O)C2=C(CCN(Cc3ccccc3Cl)C2)N2CCN=C12 [Compound I-27, 7-(2-chlorobenzyl)-4-(2-methylbenzyl)-1,2,6,7,8,9-hexahydroimidazo[1,2-a]pyrido[3,4-e]pyrimidin-5(4H)-one]
2.2 ± 0.017	2.22 ± 0.029	O=C1C2=C(CCN(Cc3cccc(Br)c3)C2)N2CCN=C2N1Cc1ccccc1Cl [Compound I-28, 7-(3-bromobenzyl)-4-(2-chlorobenzyl)-1,2,6,7,8,9-hexahydroimidazo[1,2-a]pyrido[3,4-e]pyrimidin-5(4H)-one]
0.72 ± 0.001	0.74 ± 0.002	Cc1ccccc1CN1C(=O)C2=C(CCN(Cc3cccc(Br)c3)C2)N2CCN=C12 [Compound I-29, 7-(3-bromobenzyl)-4-(2-methylbenzyl)-1,2,6,7,8,9-hexahydroimidazo[1,2-a]pyrido[3,4-e]pyrimidin-5(4H)-one]
2.07 ± 0.062	2.13 ± 0.005	Cc1cccc(CN2CCC3=C(C2)C(=O)N(Cc2ccccc2F)C2=NCCN23)c1 [Compound I-30, 4-(2-fluorobenzyl)-7-(3-methylbenzyl)-1,2,6,7,8,9-hexahydroimidazo[1,2-a]pyrido[3,4-e]pyrimidin-5(4H)-one]
1.25 ± 0.122	1.65 ± 0.05	Cc1cccc(CN2CCC3=C(C2)C(=O)N(Cc2ccccc2C(F)(F)F)C2=NCCN23)c1 [Compound I-31, 7-(3-methylbenzyl)-4-(2-(trifluoromethyl)benzyl)-1,2,6,7,8,9-hexahydroimidazo[1,2-a]pyrido[3,4-e]pyrimidin-5(4H)-one]
0.77 ± 0.048	0.74 ± 0.001	Cc1cccc(CN2CCC3=C(C2)C(=O)N(Cc2ccccc2Cl)C2=NCCN23)c1 [Compound I-32, 4-(2-chlorobenzyl)-7-(3-methylbenzyl)-1,2,6,7,8,9-hexahydroimidazo[1,2-a]pyrido[3,4-e]pyrimidin-5(4H)-one]

Structure (SMILES)	IC50 (HCT116) [µM]	IC50 (MDA-MB-231) [µM]
O=C1C2=C(CCN(Cc3ccccc3)C2)N2CCN=C2N1Cc1cccc(Cl)c1 [Compound I-1, 7-Benzyl-4-(3-chlorobenzyl)-1,2,6,7,8,9-hexahydroimidazo[1,2-a]pyrido[3,4-e]pyrimidin-5(4H)-one]	0.23 ± 0.009	0.24
